Measured values taken from paper PMC12320831, “Synthesis and Biological Evaluation of New Chalcogen Semicarbazone (S, Se) and Their Azole Derivatives against Chagas Disease” (Journal of Medicinal Chemistry, 2024).
Several values for one entry are separate records, joined by “and”; a condition that tells them apart may be missing. Equal entries are not always repeated. Structures can show the parent of a compound that is named as a salt. Where two headings read alike, the source gives them in different places.

How the values were obtained:
T. cruzi CAI/72 strain = experiment: Antiparasitic activity in C2C12 cells infected with T. cruzi CAI/72 (image-based assay); format: cell-based; details: for EC50: mean of three experiments in triplicate (n = 9) ± SD
Method: Antiparasitic activity and cytotoxicity of compounds were determined as described before (da Silva et al., Boudreau et al.). Mouse myoblasts cell line C2C12 (ATCCCRL-1772), were maintained in high glucose (4.5 g/L glucose) Dulbecco’s modified Eagle’s medium (DMEM Gibco), supplemented with 1% penicillin–streptomycin 10,000 U/mL (Gibco) and 5% fetal bovine serum (FBS, Sigma-Aldrich) at 37 °C with 5% CO2. parasites (CAI/72 strain, DTU TcI) were maintained by weekly coinfection with C2C12 cells. For all activity assays, C2C12 cells were infected at a 10:1 parasite-to-cell ratio with culture-derived trypomastigotes, which were harvested from the supernatant of infected C2C12 cells. After adding compounds to 384-well black clear-bottom plates (Greiner cat. no. 781091), trypomastigotes (7000 parasites/well) and C2C12 cells (700 cells/well) were seeded in a total volume of 50 μL of DMEM per well in the 384-well plates. Compounds were first tested at 10 μM. […] Plates were imaged with the automated ImageXpress MicroXL microscope (Molecular Devices) and analyzed by MetaXpress software (Molecular Devices) using a custom module optimized for this assay. Infection levels (parasites per host cell) were normalized to the positive control (40 μM BNZ) and negative control (DMSO). Antiparasitic activity (EC50) ± standard deviation (SD) and host cell cytotoxicity (C2C12 viability) values were determined from the DRC using Prism software (GraphPad Software, La Jolla, CA). Every assay has three biological replicates, each in triplicates (n = 9 data points).

[1] = target: T1, Recombinant human cathepsin L (hCatL) (Homo sapiens, UniProt P07711); experiment: Human cathepsin L inhibition assay (Z-FR-AMC substrate); format: biochemical
T1 construct: purchased R&D Systems 952-CY
Method: Compounds were screened at 10 μM. […] The experiment was performed for 30 min.
(§1) All experiments were accomplished in a 384-well black microplate, using a Synergy HTX (Biotek) plate reader at 25 °C with absorption/emission wavelengths of 360/460 nm. All assays were performed in triplicate wells and DMSO was used as a vehicle control. Enzymatic activity was measured and normalized to DMSO controls, and the inhibitor E-64 (10 μM) was used as a positive control for all assays. All experiments were performed in triplicates, with at least two independent assays (n = 6 data points). IC50 values were determined through nonlinear regression. Obtained data were treated and analyzed using GraphPad Prism 9.0 (GraphPad Software, La Jolla, California).

recombinant Cz (cruzain) = target: T2, recombinant Cz (cruzain) (Trypanosoma cruzi, UniProt P25779); experiment: biochemical; details: for Cz inhibition (%): 10 µM; for SICz: ratio between IC50 hCatL and IC50 Cz; for inhibition at 10 µM: read-out: Cz inhibition (%), 10 µM
T2 construct: Cz was expressed and purified as described in da Silva et al; made in house
Method: The screening assay was performed using 1 nM of Cz diluted in 0.1 M sodium acetate pH 5.5, 1 mM dithiothreitol (DTT), and 0.01% Triton X-100. Cz was expressed and purified as described in da Silva et al. The reaction starts after 10 min incubating the enzyme with the compounds (10 μM), when adding 2.5 μM of the substrate Z-FR-AMC final concentration (Z-Phe-Arg-amidomethylcoumarin, Sigma-Aldrich, C9521) diluted in the same assay buffer (final volume of 30 μL). The experiment was performed for 10 min. […] The DRC was performed with at least nine different concentrations of the inhibitors, diluted by 2-fold serial dilution, ranging from […] to 10 μM.
as §1

[2] = Host cell cytotoxicity (C2C12 viability); format: cell-based, Mouse; details: mouse; for viability at 48 h, 10 µM: < 50% viability considered cytotoxic; for CC50 at 48 h: viability calculated at 10 μM
Method: Antiparasitic activity and cytotoxicity of compounds were determined as described before (da Silva et al., Boudreau et al.). Mouse myoblasts cell line C2C12 (ATCCCRL-1772), were maintained in high glucose (4.5 g/L glucose) Dulbecco’s modified Eagle’s medium (DMEM Gibco), supplemented with 1% penicillin–streptomycin 10,000 U/mL (Gibco) and 5% fetal bovine serum (FBS, Sigma-Aldrich) at 37 °C with 5% CO2. parasites (CAI/72 strain, DTU TcI) were maintained by weekly coinfection with C2C12 cells. For all activity assays, C2C12 cells were infected at a 10:1 parasite-to-cell ratio with culture-derived trypomastigotes, which were harvested from the supernatant of infected C2C12 cells. After adding compounds to 384-well black clear-bottom plates (Greiner cat. no. 781091), trypomastigotes (7000 parasites/well) and C2C12 cells (700 cells/well) were seeded in a total volume of 50 μL of DMEM per well in the 384-well plates. Compounds were first tested at 10 μM. […] After 48 h at 37 °C and 5% CO2, plates were fixed with 4% formaldehyde solution for at least 1 h, washed with 1× PBS, and stained with 5 μg/mL of 4′,6-diamidino-2-phenylindole (DAPI) for at least 1 h prior to reading. Plates were imaged with the automated ImageXpress MicroXL microscope (Molecular Devices) and analyzed by MetaXpress software (Molecular Devices) using a custom module optimized for this assay. Infection levels (parasites per host cell) were normalized to the positive control (40 μM BNZ) and negative control (DMSO). Antiparasitic activity (EC50) ± standard deviation (SD) and host cell cytotoxicity (C2C12 viability) values were determined from the DRC using Prism software (GraphPad Software, La Jolla, CA). Every assay has three biological replicates, each in triplicates (n = 9 data points).

[3] = Trypanosoma cruzi, C2C12, 48 h, read-out: EC50 Tc CAI/72, intracellular amastigotes in C2C12 cells, 48 h
[4] = Trypanosoma cruzi, C2C12, read-out: Anti-Tc CAI/72 activity (%)
[5] = read-out: EC50 Tc CAI/72, intracellular amastigotes in C2C12 cells, 48 h
[6] = each of two biological replicates in triplicate, read-out: IC50 hCatL, single biological replicate (Figure 4)
[7] = mean of two experiments in triplicate (n = 6) ± SEM, read-out: IC50 hCatL
[8] = IC50 Cz, single biological replicate (Figure 3), each of two biological replicates in triplicate
[9] = mean of two experiments in triplicate (n = 6) ± SEM, read-out: IC50 Cz
[10] = Trypanosoma cruzi, 10 µM, C2C12 infected cells, read-out: Anti-Tc CAI/72 activity (%)
[11] = C2C12 myoblast cells infected with trypomastigotes
[12] = no DRC performed, bound from the screen at 10 µM, read-out: IC50 hCatL

T2 sequence (P25779 123-337 limits assumed): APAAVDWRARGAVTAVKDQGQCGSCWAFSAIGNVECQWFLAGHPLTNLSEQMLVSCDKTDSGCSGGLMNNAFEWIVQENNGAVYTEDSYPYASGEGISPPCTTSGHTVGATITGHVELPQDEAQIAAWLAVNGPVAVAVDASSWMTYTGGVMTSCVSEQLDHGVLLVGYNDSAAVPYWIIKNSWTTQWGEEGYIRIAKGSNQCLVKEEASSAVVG
T1 sequence (P07711 114-333): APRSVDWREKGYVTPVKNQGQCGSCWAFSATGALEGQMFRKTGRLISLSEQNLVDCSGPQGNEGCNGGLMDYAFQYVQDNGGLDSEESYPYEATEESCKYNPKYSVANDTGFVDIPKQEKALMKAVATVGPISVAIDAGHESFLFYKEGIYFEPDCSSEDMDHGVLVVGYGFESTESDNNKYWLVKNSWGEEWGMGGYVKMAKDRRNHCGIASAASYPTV

C/C(=N\Nc1nc(C)c[se]1)c1cccc(Cl)c1.Cl [Se2i, (E)-2-(2-(1-(3-Chlorophenyl)ethylidene)hydrazineyl)-4-methyl-1,3-selenazole Hydrochloride]
EC50 (T. cruzi CAI/72 strain; [3]): < 1000 nM
inhibition at 10 µM (T. cruzi CAI/72 strain; [4]): 65%
EC50 (T. cruzi CAI/72 strain; [5]): 530 ± 570 nM
inhibition at 10 µM [1]: 98%
IC50 [1, 6]: 458 nM and 449 nM
IC50 [1, 7]: 453.7 ± 4.4 nM
Cz inhibition (%) (recombinant Cz (cruzain)): 102.55%
IC50 (recombinant Cz (cruzain); [8]): 63.8 nM and 99.5 nM
IC50 (recombinant Cz (cruzain); [9]): 81.7 ± 17.9 nM
SICz (recombinant Cz (cruzain)): 5.55
inhibition at 10 µM (recombinant Cz (cruzain)): > 85%
viability at 48 h, 10 µM [2]: > 100%
CC50 at 48 h [2]: > 10000 nM

C/C(=N\NC(N)=[Se])c1ccc(Br)cc1 [Se1f, (E)-2-(1-(4-Bromophenyl)ethylidene)hydrazine-1-carboselenoamide]
EC50 (T. cruzi CAI/72 strain; [3]): < 1000 nM
inhibition at 10 µM (T. cruzi CAI/72 strain; [10]): 69.5%
EC50 (T. cruzi CAI/72 strain; [5]): 770 ± 170 nM
inhibition at 10 µM [1]: 97.3%
IC50 [1, 6]: 91.3 nM and 121 nM
IC50 [1, 7]: 106 ± 14.9 nM
Cz inhibition (%) (recombinant Cz (cruzain)): 101.08%
IC50 (recombinant Cz (cruzain); [8]): 17.8 nM and 10.7 nM
IC50 (recombinant Cz (cruzain); [9]): 14.3 ± 3.57 nM
SICz (recombinant Cz (cruzain)): 7.42
inhibition at 10 µM (recombinant Cz (cruzain)): > 85%
viability at 48 h, 10 µM [2]: > 100%
CC50 at 48 h [2]: > 10000 nM

C/C(=N\NC(N)=S)c1cccc([N+](=O)[O-])c1 [Compound S1h, (E)-2-(1-(3-Nitrophenyl)ethylidene)hydrazine-1-carbothioamide]
inhibition at 10 µM (T. cruzi CAI/72 strain; [10]): 24.8%
inhibition at 10 µM [1]: 94.5%
IC50 [1, 7]: 190 ± 18.4 nM
IC50 (recombinant Cz (cruzain); [9]): 1.15 ± 0.74 nM
SICz (recombinant Cz (cruzain)): 164.83
inhibition at 10 µM (recombinant Cz (cruzain)): 100%
viability at 48 h, 10 µM [2, 11]: > 100%

C/C(=N\Nc1nc(C)cs1)C12CC3CC(CC(C3)C1)C2 [Compound S2q, 2-(2-((E)-1-((3s)-Adamantan-1-yl)ethylidene)hydrazineyl)-4-methylthiazole Hydrochloride]
inhibition at 10 µM (T. cruzi CAI/72 strain; [10]): 40.5%
inhibition at 10 µM (recombinant Cz (cruzain)): 30.5%
viability at 48 h, 10 µM [2, 11]: > 100%

C/C(=N\Nc1nc(C)cs1)c1cccc([N+](=O)[O-])c1 [Compound S2h, (E)-4-Methyl-2-(2-(1-(3-nitrophenyl)ethylidene)hydrazineyl)thiazole Hydrochloride]
inhibition at 10 µM (T. cruzi CAI/72 strain; [10]): 28.8%
inhibition at 10 µM [1]: 12.1%
IC50 [1, 12]: > 10000 nM
IC50 (recombinant Cz (cruzain); [9]): 1280 ± 1120 nM
inhibition at 10 µM (recombinant Cz (cruzain)): 96.9%
viability at 48 h, 10 µM [2, 11]: > 100%

C/C(=N\NC(N)=[Se])C12CC3CC(CC(C3)C1)C2 [Se1q, (E)-2-(1-((3r,5r,7r)-Adamantan-1-yl)ethylidene)hydrazine-1-carboselenoamide]
inhibition at 10 µM (T. cruzi CAI/72 strain; [4]): 16.2%
inhibition at 10 µM (recombinant Cz (cruzain)): 83.8%
viability at 48 h, 10 µM [2]: 78.6%

C/C(Cc1cccc(Cl)c1)=N\NC(N)=S [Compound S1m, (E)-2-(1-(3-Chlorophenyl)propan-2-ylidene)hydrazine-1-carbothioamide]
inhibition at 10 µM (T. cruzi CAI/72 strain; [10]): 69.4%
EC50 (T. cruzi CAI/72 strain; Trypanosoma cruzi, intracellular amastigotes in C2C12 cells, 48 h, read-out: EC50 Tc CAI/72): 2920 ± 160 nM
inhibition at 10 µM (recombinant Cz (cruzain)): 72.3%
viability at 48 h, 10 µM [2, 11]: > 100%
CC50 at 48 h [2, 11]: > 10000 nM

C/C(=N\Nc1nc(C)c[se]1)c1ccc(F)c(F)c1 [Se2j, (E)-2-(2-(1-(3,4-Difluorophenyl)ethylidene)hydrazineyl)-4-methyl-1,3-selenazole Hydrochloride]
inhibition at 10 µM (T. cruzi CAI/72 strain; [4]): 18.7%
inhibition at 10 µM (recombinant Cz (cruzain)): 102%
viability at 48 h, 10 µM [2]: 38.3%

COc1ccc(/C(C)=N/Nc2nc(C)c[se]2)cc1 [Se2b, (E)-2-(2-(1-(4-Methoxyphenyl)ethylidene)hydrazineyl)-4-methyl-1,3-selenazole Hydrochloride]
inhibition at 10 µM (T. cruzi CAI/72 strain; [4]): 12.1%
inhibition at 10 µM (recombinant Cz (cruzain)): 21.6%
viability at 48 h, 10 µM [2]: 94%

COc1ccc(/C(C)=N/Nc2nc(C)cs2)cc1 [Compound S2b, (E)-2-(2-(1-(4-Methoxyphenyl)ethylidene)hydrazineyl)-4-methylthiazole Hydrochloride]
inhibition at 10 µM (T. cruzi CAI/72 strain; [10]): 23.5%
inhibition at 10 µM (recombinant Cz (cruzain)): 37.5%
viability at 48 h, 10 µM [2, 11]: > 100%

C/C(=N\Nc1nc(C)cs1)c1cccc(Cl)c1 [Compound S2i, (E)-2-(2-(1-(3-Chlorophenyl)ethylidene)hydrazineyl)-4-methylthiazole]
inhibition at 10 µM (T. cruzi CAI/72 strain; [10]): 49.3%
inhibition at 10 µM [1]: 24.7%
IC50 [1, 12]: > 10000 nM
IC50 (recombinant Cz (cruzain); [9]): 142 ± 79.2 nM
inhibition at 10 µM (recombinant Cz (cruzain)): 97.5%
viability at 48 h, 10 µM [2, 11]: > 100%

C/C(=N\NC(N)=[Se])c1cccc([N+](=O)[O-])c1 [Se1h, (E)-2-(1-(3-Nitrophenyl)ethylidene)hydrazine-1-carboselenoamide]
inhibition at 10 µM (T. cruzi CAI/72 strain; [10]): 41%
inhibition at 10 µM [1]: 98.7%
IC50 [1, 7]: 9.32 ± 0.38 nM
IC50 (recombinant Cz (cruzain); IC50 Cz, mean of two experiments in triplicate (n = 6) ± SEM): 0.91 ± 0.18 nM
SICz (recombinant Cz (cruzain)): 10.22
inhibition at 10 µM (recombinant Cz (cruzain)): 104%
viability at 48 h, 10 µM [2]: 97.3%
